In experiment [1] the test system is CCRF-CEM. The experiment is described as follows: Cytotoxicity against human CCRF-CEM cells assessed as reduction in cell viability after 72 hrs by resazurin reduction assay. It counts as functional, cell-based.
Experiment [2] relates to CCRF-CEM. As to the kind of experiment: Cell cycle arrest in human CCRF-CEM cells assessed as accumulation at SubG1 phase at 0.055 to 0.44 uM after 72 hrs by propidium iodide staining-based flow cytometry. The experiment is classed as functional. In general terms: In flow cytometry, cells or beads pass a laser one at a time.
Experiment [3] relates to CCRF-CEM. As to the kind of experiment: Cell cycle arrest in human CCRF-CEM cells assessed as accumulation at G2/M phase at 0.055 to 0.44 uM after 6 to 72 hrs by propidium iodide staining-based flow cytometry. The experiment is classed as functional.
In experiment [4] the test system is CCRF-CEM. The experiment is described as follows: Cell cycle arrest in human CCRF-CEM cells assessed as accumulation at S phase at 0.055 to 0.44 uM after 6 to 72 hrs by propidium iodide staining-based flow cytometry. It counts as functional.
For another experiment, the system named is ADR5000 cell line. As to the kind of experiment: Cytotoxicity against human CEM/ADR5000 cells assessed as reduction in cell viability after 72 hrs by resazurin reduction assay. The experiment is classed as functional, cell-based. To be noted: ADR5000, 72 h.
Experiment [5] in a line: Resistance index, ratio of IC50 for human CEM/ADR5000 cells to IC50 for human CCRF-CEM cells. It counts as functional.
Experiment [6] concerns CCRF-CEM. As to the kind of experiment: Induction of apoptosis in human CCRF-CEM cells at 0.055 to 0.44 uM after 24 to 72 hrs by propidium iodide staining-based flow cytometry. The experiment is classed as functional, cell-based.
Experiment [7] has as its system CCRF-CEM. The experiment is described as follows: Cell cycle arrest in human CCRF-CEM cells assessed as accumulation at G2/M phase after 24 hrs by propidium iodide staining-based flow cytometry. The experiment is classed as functional.
Experiment [8] concerns CCRF-CEM. As to the kind of experiment: Induction of apoptosis in human CCRF-CEM cells at 0.01 uM after 72 hrs by propidium iodide staining-based flow cytometry. It counts as functional, cell-based.
Experiment [9] has as its system CCRF-CEM. As to the kind of experiment: Cell cycle arrest in human CCRF-CEM cells assessed as accumulation at S phase at 0.01 uM after 6 hrs by propidium iodide staining-based flow cytometry. The experiment is classed as functional.

SMILES strings stand for the structures. Activity calls are given as the source filed them. No cut-off for these calls is given here.

The record followed here is ChEMBL document CHEMBL4177527, “Synthesis and biological evaluation of a D-ring-contracted analogue of lamellarin D” (Bioorg Med Chem, 2017).

As usually defined, the IC50 is the concentration needed to halve the response being measured. With `COc1cc(-c2c3c(n4ccc5cc(O)c(OC)cc5c24)C(=O)c2cc(O)c(OC)cc2-3)ccc1O`, the 50% inhibitory concentration (IC50) was 113 nM with CCRF-CEM [1] and 172 nM in the experiment on ADR5000 cell line. Also, the outcome in the experiment with CCRF-CEM [2] and with CCRF-CEM [6] was Active. Moreover, the result in the experiment on CCRF-CEM [3] and with CCRF-CEM [4] was inactive. Also, in experiment [5], the “Ratio IC50” value is reported as 1.5.

Consider `CC[C@@]1(O)C(=O)OCc2c1cc1n(c2=O)Cc2cc3ccccc3nc2-1` [CAMPTOTHECIN], for which the IC50 with CCRF-CEM [1] was found to be 3 nM; in the experiment on ADR5000 cell line it was 11 nM. Moreover, the Activity result with CCRF-CEM [7] was “Dose-dependent effect”. The outcome in the experiment with CCRF-CEM [8] and in the experiment on CCRF-CEM [9] was Active. The “Ratio IC50” value in experiment [5] was 3.7.
